# Test results from patent US20220119354A1, “DIAMINO-SUBSTITUTED PYRIDINES AND PYRIMIDINES AS HERBICIDES” (FMC Corporation, priority 2019, published 2022).
# What was measured:
# Format in all cases: in vivo
# [1] = system: foxtail, giant (Setaria faberii); test: Test A preemergence, giant foxtail; conditions: 0 to 100 scale, 0 is no effect, 100 is complete control
# Summary of the method: (§1)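 Ratings reflect visual comparison with untreated controls roughly 10 d after greenhouse application, 0 meaning no effect and 100 complete control. Treatment was by directed soil spray at planting or by spray onto one- to two-leaf plants in loam/sand pots.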
# [2] = system: kochia (Kochia scoparia); test: Test A preemergence, kochia; conditions: 0 to 100 scale, 0 is no effect, 100 is complete control
# Summary of the method: as §1
# [3] = system: galium (catchweed bedstraw, Galium aparine); test: Test A postemergence, galium; conditions: Galium, post-emergence, 240 h, 0 to 100 scale, 0 no effect, 100 complete control, read-out: Plant response rating, Galium; for pest or weed control at 125 g/ha: 125 g ai/ha; for pest or weed control at 500 g/ha: 500 g ai/ha
# Summary of the method: as §1
# [4] = system: kochia (Kochia scoparia); test: Test A postemergence, kochia; conditions: Bassia scoparia, post-emergence, 240 h, 0 to 100 scale, 0 no effect, 100 complete control, read-out: Plant response rating, Kochia; for pest or weed control at 125 g/ha: 125 g ai/ha; for pest or weed control at 500 g/ha: 500 g ai/ha
# Summary of the method: as §1
# [5] = system: corn (Zea mays); test: Test A postemergence, corn; conditions: Zea mays, post-emergence, 240 h, 0 to 100 scale, 0 no effect, 100 complete control; for Corn plant response rating (crop injury, 0 = no effect, 100 = complete kill) at 125 g/ha: 125 g ai/ha; for Corn plant response rating (crop injury, 0 = no effect, 100 = complete kill) at 500 g/ha: 500 g ai/ha
# Summary of the method: as §1
# [6] = system: ryegrass, Italian (Lolium multiflorum); test: Test A postemergence, Italian ryegrass; conditions: Lolium multiflorum, post-emergence, 240 h, 0 to 100 scale, 0 no effect, 100 complete control, read-out: Plant response rating, Ryegrass, Italian; for pest or weed control at 125 g/ha: 125 g ai/ha; for pest or weed control at 500 g/ha: 500 g ai/ha
# Summary of the method: as §1
# [7] = system: wheat (Triticum aestivum); test: Test A postemergence, wheat; conditions: Triticum aestivum, post-emergence, 240 h, 0 to 100 scale, 0 no effect, 100 complete control, read-out: Plant response rating, Wheat; for plant injury at 125 g/ha: 125 g ai/ha; for plant injury at 500 g/ha: 500 g ai/ha
# Summary of the method: as §1
# [8] = system: barnyardgrass (Echinochloa crus-galli); test: Test B flooded paddy test, barnyardgrass; conditions: Echinochloa crus-galli, 360 h; Flood, 250 g ai/ha, applied to paddy water, 2-leaf stage, visual evaluation after 13 to 15 d; read-out: Plant response rating, Barnyardgrass (0 to 100 scale, 0 is no effect, 100 is complete control)
# Summary of the method: (§2)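 Pots flooded to 3 cm above the soil when treated, with test compound added straight to the water and the flood maintained. Treated plants were at the 2-leaf stage and stayed 13–15 d in greenhouse. Response versus untreated controls scored visually from 0 (no effect) to 100 (complete control).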
# [9] = system: foxtail, giant (Setaria faberii); test: Test A postemergence, giant foxtail; conditions: Setaria faberi, post-emergence, 240 h, 0 to 100 scale, 0 no effect, 100 complete control, read-out: Plant response rating, Foxtail, Giant; for pest or weed control at 125 g/ha: 125 g ai/ha; for pest or weed control at 500 g/ha: 500 g ai/ha
# Summary of the method: as §1
# [10] = system: rice (Oryza sativa); test: Test B flooded paddy test, rice; conditions: Oryza sativa, 360 h; Flood, 250 g ai/ha, applied to paddy water, 2-leaf stage, visual evaluation after 13 to 15 d; read-out: Plant response rating, Rice (0 to 100 scale, 0 is no effect, 100 is complete control)
# Summary of the method: as §2
# [11] = system: pigweed (Amaranthus retroflexus); test: Test A postemergence, pigweed; conditions: Amaranthus retroflexus, post-emergence, 240 h, 0 to 100 scale, 0 no effect, 100 complete control, read-out: Plant response rating, Pigweed; for pest or weed control at 125 g/ha: 125 g ai/ha; for pest or weed control at 500 g/ha: 500 g ai/ha
# Summary of the method: as §1
# [12] = system: blackgrass (Alopecurus myosuroides); test: Test A postemergence, blackgrass; conditions: Alopecurus myosuroides, post-emergence, 240 h, 0 to 100 scale, 0 no effect, 100 complete control, read-out: Plant response rating, Blackgrass; for pest or weed control at 125 g/ha: 125 g ai/ha; for pest or weed control at 500 g/ha: 500 g ai/ha
# Summary of the method: as §1
# [13] = system: ragweed (common ragweed, Ambrosia elatior); test: Test A preemergence, ragweed; conditions: 0 to 100 scale, 0 is no effect, 100 is complete control
# Summary of the method: as §1
# [14] = system: ducksalad (Heteranthera limosa); test: Test B flooded paddy test, ducksalad; conditions: Heteranthera limosa, 360 h; Flood, 250 g ai/ha, applied to paddy water, 2-leaf stage, visual evaluation after 13 to 15 d; read-out: Plant response rating, Ducksalad (0 to 100 scale, 0 is no effect, 100 is complete control)
# Summary of the method: as §2
# [15] = system: sedge, umbrella (small-flower umbrella sedge, Cyperus difformis); test: Test B flooded paddy test, umbrella sedge; conditions: Cyperus difformis, 360 h; Flood, 250 g ai/ha, applied to paddy water, 2-leaf stage, visual evaluation after 13 to 15 d; read-out: Plant response rating, Sedge, Umbrella (0 to 100 scale, 0 is no effect, 100 is complete control)
# Summary of the method: as §2
# [16] = system: ragweed (common ragweed, Ambrosia elatior); test: Test A postemergence, ragweed; conditions: Ambrosia artemisiifolia, post-emergence, 240 h, 0 to 100 scale, 0 no effect, 100 complete control, read-out: Plant response rating, Ragweed; for pest or weed control at 125 g/ha: 125 g ai/ha; for pest or weed control at 500 g/ha: 500 g ai/ha
# Summary of the method: as §1
# [17] = system: pigweed (Amaranthus retroflexus); test: Test A preemergence, pigweed; conditions: 0 to 100 scale, 0 is no effect, 100 is complete control
# Summary of the method: as §1
SMILES,"Foxtail, Giant plant response rating ([1]; 125 g ai/ha)","Foxtail, Giant plant response rating ([1]; 500 g ai/ha)",Kochia plant response rating ([2]; 125 g ai/ha),Kochia plant response rating ([2]; 500 g ai/ha),pest or weed control at 125 g/ha [3],pest or weed control at 500 g/ha [3],pest or weed control at 125 g/ha [4],pest or weed control at 500 g/ha [4],"Corn plant response rating (crop injury, 0 = no effect, 100 = complete kill) at 125 g/ha [5]","Corn plant response rating (crop injury, 0 = no effect, 100 = complete kill) at 500 g/ha [5]",pest or weed control at 125 g/ha [6],pest or weed control at 500 g/ha [6],plant injury at 125 g/ha [7],plant injury at 500 g/ha [7],pest or weed control at 250 g/ha [8],pest or weed control at 125 g/ha [9],pest or weed control at 500 g/ha [9],plant injury at 250 g/ha [10],pest or weed control at 125 g/ha [11],pest or weed control at 500 g/ha [11],other results
"C[C@@H](Nc1ncc(C(F)(F)F)c(N)n1)c1cc2c(F)cccc2s1 [Compound 61, N2-[(1R)-1-(4-fluorobenzo[b]thien-2-yl)ethyl]-5-(trifluoromethyl)-2,4-pyrimidinediamine]",100,100,90,90,70%,100%,80%,90%,10%,60%,50%,90%,20%,30%,40%,90%,90%,0%,100%,100%,pest or weed control at 125 g/ha [12]: 80%; pest or weed control at 500 g/ha [12]: 70%; Ragweed plant response rating ([13]; 125 g ai/ha): 90; Ragweed plant response rating ([13]; 500 g ai/ha): 100; pest or weed control at 250 g/ha [14]: 50%; pest or weed control at 250 g/ha [15]: 90%; pest or weed control at 125 g/ha [16]: 60%; pest or weed control at 500 g/ha [16]: 100%; Pigweed plant response rating ([17]; 125 g ai/ha): 100; Pigweed plant response rating ([17]; 500 g ai/ha): 100
"C[C@@H](Nc1ncc(C(F)(F)F)c(N)n1)c1cc2cccc(F)c2o1 [Compound 71, N2-[(1R)-1-(7-fluoro-2-benzofuranyl)ethyl]-5-(trifluoromethyl)-2,4-pyrimidinediamine]",90,100,90,100,80%,90%,90%,90%,0%,40%,30%,70%,0%,0%,0%,60%,90%,0%,100%,100%,pest or weed control at 125 g/ha [12]: 0%; pest or weed control at 500 g/ha [12]: 50%; Ragweed plant response rating ([13]; 125 g ai/ha): 100; Ragweed plant response rating ([13]; 500 g ai/ha): 100; pest or weed control at 250 g/ha [14]: 0%; pest or weed control at 250 g/ha [15]: 0%; pest or weed control at 125 g/ha [16]: 80%; pest or weed control at 500 g/ha [16]: 90%; Pigweed plant response rating ([17]; 125 g ai/ha): 100; Pigweed plant response rating ([17]; 500 g ai/ha): 100
"C[C@@H](Nc1ncc(C(F)(F)F)c(N)n1)c1cc2c(F)cccc2o1 [Compound 73, N2-[(1R)-1-(4-fluoro-2-benzofuranyl)ethyl]-5-(trifluoromethyl)-2,4-pyrimidinediamine]",100,100,100,100,90%,90%,90%,100%,30%,40%,90%,100%,0%,0%,65%,70%,100%,10%,100%,100%,pest or weed control at 125 g/ha [12]: 50%; pest or weed control at 500 g/ha [12]: 80%; Ragweed plant response rating ([13]; 125 g ai/ha): 100; Ragweed plant response rating ([13]; 500 g ai/ha): 100; pest or weed control at 250 g/ha [14]: 98%; pest or weed control at 250 g/ha [15]: 90%; pest or weed control at 125 g/ha [16]: 90%; pest or weed control at 500 g/ha [16]: 100%; Pigweed plant response rating ([17]; 125 g ai/ha): 100; Pigweed plant response rating ([17]; 500 g ai/ha): 100
"C[C@@H](Nc1ncc(C(F)(F)F)c(N)n1)c1cc2cccc(F)c2s1 [Compound 75, N2-[(1R)-1-(7-fluorobenzo[b]thien-2-yl)ethyl]-5-(trifluoromethyl)-2,4-pyrimidinediamine]",90,100,90,100,80%,80%,80%,90%,0%,10%,0%,50%,0%,0%,40%,60%,90%,0%,100%,100%,pest or weed control at 125 g/ha [12]: 0%; pest or weed control at 500 g/ha [12]: 30%; Ragweed plant response rating ([13]; 125 g ai/ha): 100; Ragweed plant response rating ([13]; 500 g ai/ha): 100; pest or weed control at 250 g/ha [14]: 95%; pest or weed control at 250 g/ha [15]: 98%; pest or weed control at 125 g/ha [16]: 70%; pest or weed control at 500 g/ha [16]: 90%; Pigweed plant response rating ([17]; 125 g ai/ha): 100; Pigweed plant response rating ([17]; 500 g ai/ha): 100
